Measurements: patent US10633408B2, “Nucleoside-lipid compounds with pH-sensitive dialkylorthoester chains and their use for transportation or vectorization of at least one therapeutic agent” (UNIVERSITE DE BORDEAUX, priority 2015, dated 2020)

Experiments:
[1] = Liposome characterization by dynamic light scattering and zeta potential; assay type: physicochemical; conditions: liposomes of the compound alone, 1 mg/mL in Milli-Q water; for Pdi (polydispersity) of liposomes / d (diameter) of liposomes: DLS
Description: Zeta potential measurements and Dynamic light scattering (DLS) measurements of liposomes were performed with a MalvernNanoZS device.
100 μL of stock solutions of anionic or cationic compounds of formula (I) prepared in examples 2 and 6 (10 mg/mL in dichloromethane) were placed in glass tubes, dried under dry N2 and then desiccated under vacuum. Milli-Q Water was added to the dried lipid to obtain liposomes dispersions (1 mg/mL) after vortex agitation and sonication for 10 min.
The size distribution by intensity measured by dynamic light scattering (DLS) of liposomes prepared from compound 11 prepared in example 6 (anionic compounds of formula (I)) is shown on FIG. 3A, and of liposomes prepared from compound 6 prepared in example 2 (cationic compound of formula (I)) is shown on FIG. 3B.

[2] = 1H NMR kinetic study of orthoester hydrolysis; assay type: physicochemical; conditions: for rate of hydrolysis of the orthoester function, effect of pH: MeOD:phosphate buffer (1:2), pH 5 vs 7.4, 37° C.
Description: 1HNMR experiments were performed to study the kinetics of hydrolysis for both anionic and cationic compounds of formula (I) at pH 5 and 7.4 by measuring the percentage of hydrolyzed compound versus time.
10 mg of cationic compound (6) prepared in example 2 or anionic compound (11) prepared in example 6 were dissolved in a mixture of MeOD:Buffer phosphate (1:2) (pH 5 or 7.4), mixed and placed in a NMR tube. ^1H NMR Experiment was performed at 37° C. at 300 MHz on a BRUKER® Avance DPX-300.
After hydrolysis of the orthoester function, the chemical shifts of the thymidine CH3 protons are shifted upfield and downfield for compound 6 and 11, respectively. Thus, the percentage of hydrolysis versus time was followed by integrating the signals of the CH3 protons.

[3] = DLS of nucleolipid/DOPE liposomes and siRNA complexes; assay type: physicochemical; conditions: for size of siRNA complexes with siRNA RECQL4 / size of siRNA complexes with siRNA luciferase: 10 pmol siRNA + 2 nmol nucleolipid/DOPE, serum-free medium; for diameter of liposomes: nucleolipid/DOPE liposomes in water
Description: (§1) Compound 6 and DOPE were mixed with molar ratio and dissolved in methylene chloride. The solvent was evaporated with nitrogen flow while stirring to prepare lipids films. This preparation was rehydrated with 1 mL of water, them submitted to Vortex, and the tube was put in ultrasonic bath (37 kHz) during 15-20 min at 15° C. The same experiment was carried out with DOTAU/DOPE (1:1) Liposomes were analysed by DLS (Malvern, Zetasizer) and measured 74 nm of diameters for orthoester and 48 nm for DOTAU. 10 pmol of siRNA were added to 2 nmol of orthoester/DOPE in 100 μL of PRMI 1640 serum-free medium. After submitting to Vortex, this solution was incubated 20 min at RT and transferred in wells. The siRNA orthoester/DOPE complexes were analysed by DLS and measured at 90 nm with siRNA luciferase and at 100 nm with siRNA RECQL4 for orthoester (69 nm and 63 nm, respectively for DOTAU).

[4] = system: RECQL4; experiment: Inhibition of RECQL4 by siRNA transfection, qPCR normalized with GAPDH; assay type: cell-based, human; conditions: MDA-MB-134 breast cancer cells, 72 h, nucleolipid/DOPE complexes, N/P 1/5 and 1/10
Description: as §1, with “RECQL4 is a human RecQ helicase implicated in three syndromes (Rothmund-Thompson, […] and Baller-Gerold) displaying accelerating aging, developmental abnormalities and cancer's predisposition. […] In this example, the efficacy of compound 6 prepared in example 2 in the transfection of siRNA targeting RECQL4 is evaluated. Compound” for “Compound”, “(1:1)” for “(1:1) Liposomes were analysed by DLS (Malvern, Zetasizer) and measured 74 nm of diameters for orthoester and 48 nm for DOTAU.”, “DOTAU). 2.10^5 MDA-MB-134 cells by well were added in 500 μL final volume. […] RNA was converted in cDNA by Reverse Transcription with QuantiTect kit (Qiagen). Then, a quantitative PCR was performed with 25 ng of cDNA, the master mix GoTaq qPCR (Promega) and specific primers (1 μM). […]” for “DOTAU).”

[5] = Small-angle X-ray scattering (SAXS) of compound 6/DOPC; assay type: physicochemical; conditions: with DOPC (mol ratio 50/50), incubation at pH=5 and 37° C.
Description: […] SAXS experiments were carried out at the Centre de Recherche Paul Pascal, Pessac, France on a NanoStar (Bruker). With a sample to detector distance equal to 650 mm and a radiation wavelength of A=0.154 nm, the scattering wave vectors in reciprocal space ranged from q=0.16 nm^−1 and 3.4 nm^−1.
The beam size at the sample position was 0.45 mm (0). Images were captured by the HiStar (Bruker).
The array of detection totalizes 1024×1024 pixels, each one with 100 μm for side. Data were radially averaged and corrected for background scattering by using the software SAXS-Bruker. All experiments were carried out on thermally equilibrated samples at 25° C., which was obtained by keeping the sample holders under water circulation at controlled temperature.

| SMILES | ζ (zeta potential) of liposomes [1] | Pdi (polydispersity) of liposomes [1] | d (diameter) of liposomes [1] | rate of hydrolysis of the orthoester function, effect of pH [2] | rate of hydrolysis relative to cationic compound 6 ([2]; at both pH 5 and 7, 37° C.) | size of siRNA complexes with siRNA RECQL4 [3] | size of siRNA complexes with siRNA luciferase [3] | diameter of liposomes [3] | expression of RECQL4 after siRNA transfection [4] | SAXS profile before and after incubation [5] |
| --- | --- | --- | --- | --- | --- | --- | --- | --- | --- | --- |
| CCCCCCCCCCCCCCCCOC(OCCCCCCCCCCCCCCCC)O[C@H]1C[C@H](n2cc(C)c(=O)[nH]c2=O)O[C@@H]1COP(=O)(O)OC [Compound 11, ((2R,3S,5R)-3-(bis(hexadecyloxy)methoxy)-5-(5-methyl-2,4-dioxo-3,4-dihydropyrimidin-1(2H)-yl)tetrahydrofuran-2-yl)methyl methyl phosphate] | −43.3 mV | 0.163 | 100.4 nm | higher rates of hydrolysis at pH=5 | increased hydrolysis rates |  |  |  |  |  |
| CCCCCCCCCCCCCCCCOC(OCCCCCCCCCCCCCCCC)O[C@H]1C[C@H](n2cc(C)c(=O)[nH]c2=O)O[C@@H]1C[N+](C)(C)C.CS(=O)(=O)[O-] [Compound 6, 1-((2R,3S,5R)-3-(bis(hexadecyloxy)methoxy)-5-(5-methyl-2,4-dioxo-3,4-dihydropyrimidin-1 (2H)-yl)tetrahydrofuran-2-yl)-N,N,N-trimethyl-methanaminium methanesulfonate] | 51.4 mV | 0.221 | 135.9 nm | higher rates of hydrolysis at pH=5 |  | 100 nm | 90 nm | 74 nm | able to inhibit the expression of RECQL4 | evolves from vesicular to multilamellar systems |
| CCCCCCCC/C=C\CCCCCCCC(=O)OC1C(C[N+](C)(C)C)OC(n2ccc(=O)[nH]c2=O)C1OC(=O)CCCCCCC/C=C\CCCCCCCC.Cc1ccc(S(=O)(=O)[O-])cc1 (stereo not drawn) [DOTAU, N-[5′-(2′,3′-dioleoyl)uridine]-N′,N′,N′-trimethylammonium tosylate, reference compound] |  |  |  |  |  | 63 nm | 69 nm | 48 nm | not able to transfect the siRNA targeting RECQL4 |  |
